Measurements as given in ChEMBL document CHEMBL1201862, “PubChem BioAssay data set” (2004).
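48-hour exposure; five concentrations; linearly interpolated endpoints. GI50 marks 50% less growth.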 Active and inactive are the calls of the source. Rule as the data show it: active = GI50 up to about 1.1 µM and inactive = higher.

Experiments:
Test in all cases: growth of human tumour cells (NCI), 48 h
COLO 205 = test system: COLO 205
HCC 2998 = test system: HCC 2998
HL-60 = test system: HL-60
K562 = test system: K562
LOX IMVI = test system: LOX IMVI
LXFL 529 = test system: LXFL 529
M14 = test system: M14
NCI-H23 = test system: NCI-H23
NCI-H460 = test system: NCI-H460
OVCAR-3 = test system: OVCAR-3
OVCAR-8 = test system: OVCAR-8
SF-295 = test system: SF-295
SN12C = test system: SN12C
UACC-62 = test system: UACC-62
Malme-3M = test system: Malme-3M
SF-268 = test system: SF-268

Measured: GI50

COC12OCCN(C)C1=CC(=O)C1=NNC(C)C12 (centres undefined)
inactive: COLO 205 > 100 µM | HCC 2998 > 100 µM | HL-60 > 100 µM | K562 > 100 µM | LOX IMVI > 100 µM | LXFL 529 > 100 µM | M14 > 100 µM | NCI-H23 > 100 µM | NCI-H460 > 100 µM | OVCAR-3 > 100 µM | OVCAR-8 > 100 µM | SF-295 > 100 µM | SN12C > 100 µM | UACC-62 > 100 µM

CCc1ccc(Cc2ccc(CC)c(NC(=O)C(=O)Cc3nc4ccccc4nc3C)c2CC)c(CC)c1NC(=O)C(=O)Cc1nc2ccccc2nc1C
inactive: COLO 205 > 100 µM | HCC 2998 62.5 µM | HL-60 > 100 µM | K562 > 100 µM | LOX IMVI > 100 µM | LXFL 529 54.1 µM | M14 > 100 µM | Malme-3M 81.3 µM | NCI-H23 > 100 µM | NCI-H460 > 100 µM | OVCAR-3 15 µM | OVCAR-8 > 100 µM | SF-268 33.3 µM | UACC-62 > 100 µM

O=C1CCC(c2nc3ccccc3o2)C(=O)N1 (centres undefined)
inactive: COLO 205 > 100 µM | HCC 2998 > 100 µM | HL-60 > 100 µM | K562 > 100 µM | LOX IMVI > 100 µM | LXFL 529 > 100 µM | M14 > 100 µM | Malme-3M > 100 µM | NCI-H23 > 100 µM | NCI-H460 > 100 µM | OVCAR-3 > 100 µM | OVCAR-8 > 100 µM | SF-268 > 100 µM | SF-295 > 100 µM | SN12C > 100 µM | UACC-62 > 100 µM

CCCCCCCCCCCc1cc(=O)c2c(O)cccc2o1
inactive: COLO 205 > 100 µM | HCC 2998 66.2 µM | HL-60 30.5 µM | K562 43.7 µM | LOX IMVI 37.5 µM | LXFL 529 55.1 µM | M14 64 µM | Malme-3M > 100 µM | NCI-H23 > 100 µM | NCI-H460 79.1 µM | OVCAR-3 > 100 µM | OVCAR-8 > 100 µM | SF-268 > 100 µM | SF-295 87.5 µM | SN12C > 100 µM | UACC-62 > 100 µM

O=C(Nc1cc(Cl)c(Cl)cc1Cl)C(=O)C(C(=O)c1ccccc1)C1OC(=O)c2ccccc21 (centres undefined)
inactive: COLO 205 > 100 µM | HCC 2998 > 100 µM | HL-60 > 100 µM | K562 > 100 µM | LOX IMVI > 100 µM | LXFL 529 > 100 µM | M14 > 100 µM | Malme-3M > 100 µM | NCI-H23 > 100 µM | NCI-H460 > 100 µM | OVCAR-3 > 100 µM | OVCAR-8 > 100 µM | SF-268 > 100 µM | SF-295 > 100 µM | SN12C > 100 µM | UACC-62 > 100 µM

Clc1ccc(C2SCc3nc4ccccc4n32)c(Cl)c1 (centres undefined)
inactive: COLO 205 17 µM | HCC 2998 14.6 µM | HL-60 8.22 µM | K562 11 µM | LOX IMVI 15.3 µM | LXFL 529 11.9 µM | M14 14.4 µM | Malme-3M 17.7 µM | NCI-H23 11.3 µM | NCI-H460 16.6 µM | OVCAR-3 14.1 µM | OVCAR-8 16.9 µM | SF-268 16.5 µM | SF-295 8.36 µM | SN12C 14.6 µM | UACC-62 17.7 µM

CC(=O)OC1CC2C(C)(C)C(=O)C=C[C@]2(C)C2CCC3(C)C(=CCC3[C@H](CO)C[C@H](O)C(=O)C(C)(C)O)[C@]12C (some centres undefined)
inactive: COLO 205 42.1 µM | HCC 2998 18.1 µM | HL-60 19.5 µM | K562 27 µM | LOX IMVI 18.2 µM | LXFL 529 42.4 µM | M14 21.7 µM | Malme-3M 14.7 µM | NCI-H23 > 10 µM | NCI-H460 16.6 µM | OVCAR-3 19.5 µM | OVCAR-8 17.3 µM | SF-268 25.9 µM | SF-295 12.9 µM | SN12C 26.4 µM | UACC-62 14.2 µM

CCCCCCCCCCn1cccc1/C=C/c1ccc(/C=C/c2cccn2CCCCCCCCCC)cc1
inactive: COLO 205 > 100 µM | HCC 2998 > 100 µM | HL-60 > 100 µM | K562 > 100 µM | LOX IMVI > 100 µM | LXFL 529 > 100 µM | M14 > 100 µM | Malme-3M > 100 µM | NCI-H23 > 100 µM | NCI-H460 > 100 µM | OVCAR-3 > 100 µM | OVCAR-8 > 100 µM | SF-268 > 100 µM | SF-295 > 100 µM | SN12C > 100 µM | UACC-62 > 100 µM

Cc1c2ccncc2c(C)c2c1[nH]c1ccc(OC(C)(C)C)cc12
inactive: COLO 205 1.47 µM | HCC 2998 1.85 µM | HL-60 1.81 µM | K562 2.08 µM | LOX IMVI 2.24 µM | LXFL 529 2.23 µM | M14 4.06 µM | Malme-3M 1.77 µM | NCI-H23 5.36 µM | NCI-H460 1.93 µM | OVCAR-3 1.73 µM | OVCAR-8 2.51 µM | SF-268 5.12 µM | SF-295 2.07 µM | UACC-62 2.31 µM

COc1ccc(C=C(c2ccc(OCc3ccccc3)cc2)c2ccc(OCc3ccccc3)cc2)cc1
inactive: COLO 205 > 100 µM | HCC 2998 > 100 µM | HL-60 > 100 µM | LOX IMVI > 100 µM | LXFL 529 > 100 µM | M14 > 100 µM | Malme-3M > 100 µM | NCI-H23 > 100 µM | NCI-H460 > 100 µM | OVCAR-3 > 100 µM | OVCAR-8 > 100 µM | SF-268 > 100 µM | SF-295 > 100 µM | SN12C > 100 µM | UACC-62 > 100 µM

O=C(O)c1cc(S(=O)(=O)N/N=C\c2c3ccccc3[n+]([O-])c3ccccc23)ccc1O
inactive: COLO 205 15.1 µM | HCC 2998 6.97 µM | HL-60 4.07 µM | K562 8.61 µM | LOX IMVI 8 µM | LXFL 529 12.2 µM | M14 17.1 µM | Malme-3M 17.7 µM | NCI-H23 8.04 µM | NCI-H460 5.96 µM | OVCAR-3 40.1 µM | OVCAR-8 12.7 µM | SF-268 11.7 µM | SF-295 4.45 µM | SN12C 17.9 µM | UACC-62 8.69 µM

O=C(O)CCNCCCCNCCC(=O)O
inactive: COLO 205 > 100 µM | HCC 2998 > 100 µM | HL-60 > 100 µM | K562 > 100 µM | LOX IMVI > 100 µM | LXFL 529 > 100 µM | M14 > 100 µM | Malme-3M > 100 µM | NCI-H23 > 100 µM | NCI-H460 > 100 µM | OVCAR-3 > 100 µM | OVCAR-8 > 100 µM | SF-268 > 100 µM | SF-295 > 100 µM | SN12C > 100 µM | UACC-62 > 100 µM

C=CCOC(C)n1c(C)c(Br)c(=O)[nH]c1=O (centres undefined)
inactive: COLO 205 > 100 µM | HCC 2998 > 100 µM | HL-60 > 100 µM | LOX IMVI > 100 µM | LXFL 529 > 100 µM | Malme-3M > 100 µM | NCI-H23 > 100 µM | NCI-H460 > 100 µM | OVCAR-3 > 100 µM | OVCAR-8 > 100 µM | SF-268 > 100 µM | SF-295 > 100 µM | SN12C > 100 µM | UACC-62 > 100 µM

O=C1c2ccccc2C(=O)C1C(c1ccc(F)cc1)C1C(=O)c2ccccc2C1=O
inactive: COLO 205 > 100 µM | HCC 2998 > 100 µM | HL-60 37.8 µM | K562 > 100 µM | LOX IMVI 25.9 µM | LXFL 529 > 100 µM | M14 > 100 µM | Malme-3M > 100 µM | NCI-H23 > 100 µM | NCI-H460 > 100 µM | OVCAR-3 > 100 µM | OVCAR-8 > 100 µM | SF-268 > 100 µM | SF-295 > 100 µM | SN12C > 100 µM | UACC-62 > 100 µM

CC(=O)OCC1OC(OC2CC3C(C)(C)C(O)CC[C@]3(C)C3CCC45CC4(CC[C@H]5C(C)CC(O)C4OC4(C)C)[C@]23C)C(O)C(O)C1O (some centres undefined)
inactive: COLO 205 7.24 µM | HCC 2998 7.06 µM | K562 1.85 µM | LOX IMVI 5.2 µM | LXFL 529 5.83 µM | M14 8.04 µM | Malme-3M 8.97 µM | NCI-H23 8.75 µM | NCI-H460 8.91 µM | OVCAR-3 6.17 µM | OVCAR-8 6.89 µM | SF-268 6.38 µM | SF-295 8.24 µM | SN12C 8.24 µM | UACC-62 7.45 µM
active: HL-60 0.973 µM

CCOC(=O)C(Cc1ccccc1)NC(=O)c1nc[nH]c1/N=N/N(C)C (centres undefined)
inactive: COLO 205 > 100 µM | HCC 2998 > 100 µM | HL-60 > 100 µM | K562 > 100 µM | LOX IMVI > 100 µM | LXFL 529 > 100 µM | M14 > 100 µM | Malme-3M > 100 µM | NCI-H23 > 100 µM | NCI-H460 > 100 µM | OVCAR-3 > 100 µM | OVCAR-8 > 100 µM | SF-268 > 100 µM | SF-295 > 100 µM | SN12C > 100 µM | UACC-62 > 100 µM

N#CC1(CCCCl)CCCCC1
inactive: COLO 205 > 100 µM | HCC 2998 > 100 µM | HL-60 > 100 µM | K562 > 10 µM | LOX IMVI > 100 µM | LXFL 529 > 100 µM | M14 > 100 µM | Malme-3M > 100 µM | NCI-H23 > 100 µM | NCI-H460 > 100 µM | OVCAR-3 > 100 µM | OVCAR-8 > 100 µM | SF-268 > 100 µM | SF-295 > 100 µM | SN12C > 100 µM | UACC-62 > 100 µM
